In publication doi:10.1101/2020.05.05.078071v1 (biorxiv, 2020) one finds IC50 data, which are given here for one compound.

Usually IC50 stands for the point on the concentration scale where inhibition reaches its midpoint.

The structures appear in SMILES notation.

Test [1] has as its target rNaV1.4 (Rattus norvegicus, UniProt P15390). Briefly: whole-cell patch clamp, three pulse train. The format is cell-based. In general terms: Patch clamp records ionic current or voltage across a cell membrane.
The target in test [2] is rNaV1.4 (Rattus norvegicus, UniProt P15390, F1579A). Briefly: whole-cell patch clamp, three pulse train. In kind it is cell-based.
rNaV1.4 (Rattus norvegicus, UniProt P15390, F1579A), sequence (P15390 whole entry F1579A): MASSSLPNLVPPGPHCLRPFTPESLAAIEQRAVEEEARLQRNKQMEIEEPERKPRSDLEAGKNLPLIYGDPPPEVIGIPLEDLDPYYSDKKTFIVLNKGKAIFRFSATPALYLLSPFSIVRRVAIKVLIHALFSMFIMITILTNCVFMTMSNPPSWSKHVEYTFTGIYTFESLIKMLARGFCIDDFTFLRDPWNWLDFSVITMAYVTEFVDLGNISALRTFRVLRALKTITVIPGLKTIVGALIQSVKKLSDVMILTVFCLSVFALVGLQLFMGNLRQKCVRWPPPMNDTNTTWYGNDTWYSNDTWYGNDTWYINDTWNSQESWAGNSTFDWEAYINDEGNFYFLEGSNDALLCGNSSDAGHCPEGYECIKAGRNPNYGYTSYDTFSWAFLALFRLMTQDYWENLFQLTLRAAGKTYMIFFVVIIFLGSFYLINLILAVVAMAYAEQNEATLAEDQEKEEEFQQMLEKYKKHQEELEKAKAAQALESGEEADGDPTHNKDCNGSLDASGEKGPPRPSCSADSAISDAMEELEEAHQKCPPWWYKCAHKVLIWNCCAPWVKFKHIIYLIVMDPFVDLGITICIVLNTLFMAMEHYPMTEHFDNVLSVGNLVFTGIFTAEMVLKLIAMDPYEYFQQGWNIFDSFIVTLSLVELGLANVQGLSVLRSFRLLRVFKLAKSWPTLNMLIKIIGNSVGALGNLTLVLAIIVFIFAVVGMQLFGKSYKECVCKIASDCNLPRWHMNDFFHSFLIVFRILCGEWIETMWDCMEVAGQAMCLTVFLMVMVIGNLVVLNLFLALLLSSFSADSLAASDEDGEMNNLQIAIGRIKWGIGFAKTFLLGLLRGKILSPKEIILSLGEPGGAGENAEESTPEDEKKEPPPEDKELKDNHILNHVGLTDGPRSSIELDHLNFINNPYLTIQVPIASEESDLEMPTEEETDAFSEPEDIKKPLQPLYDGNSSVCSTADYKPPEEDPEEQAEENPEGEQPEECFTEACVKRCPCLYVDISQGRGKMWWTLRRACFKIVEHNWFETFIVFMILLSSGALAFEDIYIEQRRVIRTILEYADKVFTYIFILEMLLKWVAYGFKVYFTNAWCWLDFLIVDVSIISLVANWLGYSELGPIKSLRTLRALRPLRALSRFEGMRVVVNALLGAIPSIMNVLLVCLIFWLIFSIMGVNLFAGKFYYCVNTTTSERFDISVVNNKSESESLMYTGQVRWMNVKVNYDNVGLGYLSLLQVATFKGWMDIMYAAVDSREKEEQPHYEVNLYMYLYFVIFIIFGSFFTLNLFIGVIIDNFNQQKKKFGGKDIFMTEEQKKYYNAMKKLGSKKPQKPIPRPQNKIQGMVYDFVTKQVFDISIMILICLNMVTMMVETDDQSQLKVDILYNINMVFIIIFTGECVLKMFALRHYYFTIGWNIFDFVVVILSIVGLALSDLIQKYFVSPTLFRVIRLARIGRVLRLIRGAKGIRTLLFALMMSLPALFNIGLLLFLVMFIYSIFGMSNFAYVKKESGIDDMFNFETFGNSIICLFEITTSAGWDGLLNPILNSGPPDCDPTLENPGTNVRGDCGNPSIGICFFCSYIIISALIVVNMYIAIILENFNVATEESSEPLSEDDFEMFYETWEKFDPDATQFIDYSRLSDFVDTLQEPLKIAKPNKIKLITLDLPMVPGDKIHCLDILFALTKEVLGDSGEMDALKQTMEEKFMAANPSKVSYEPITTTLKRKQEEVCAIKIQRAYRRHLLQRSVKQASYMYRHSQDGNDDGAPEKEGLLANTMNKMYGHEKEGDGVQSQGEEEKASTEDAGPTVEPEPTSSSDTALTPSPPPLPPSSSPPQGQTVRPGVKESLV

rNaV1.4 (Rattus norvegicus, UniProt P15390), sequence (P15390 whole entry): as the sequence (P15390 whole entry F1579A) above, with A1579F counted along it

For the compound `Nc1nc2ccc(OC(F)(F)F)cc2s1` [riluzole], the concentration for half-maximal inhibition (IC50) in test [1] was determined as 3.98 ± 1.32 µM; in test [2], 114 ± 20 µM.
